Data taken from patent US11566049B2, “Cyclic peptides and uses thereof” (LATERAL IP PTY LTD, priority 2018, dated 2023).
Several values for one entry are separate records, joined by “and”; a condition that tells them apart may be missing. Identical values can stand only once. Entries after “also recorded” stand apart in the source; their conditions may differ.

Test system: dorsal horn neurons
Assay: whole-cell recording of dorsal horn neurons in spinal cord slices from Chung models (Example 4)
Type: cell-based, rat
Settings: 1 μM; for Input Resistance, mean in presence of peptide / Membrane Potential, mean in presence of peptide: all cells; for Normalised Input Resistance / Normalised Input Resistance ΔIR: control = 100; for effect on membrane potential and activity of dorsal horn neurons: ipsilateral to injury; for Normalised Membrane Potential / Normalised Membrane Potential ΔVm: rest = 100; for ΔIR, change in neuronal input resistance: vs control, in table positive = reduction, negative = increase; for ΔVm, change in membrane potential: vs rest, in table positive = hyperpolarisation, negative = depolarisation; for reversal potential of induced response (VI plots intersect): single cells
Description: Adult male Sprague-Dawley rats, weighing 220-250 g (aged/weeks and older) at the time of surgery, were used in this study. They were housed in groups of 4, in an air-conditioned room, on a 12-hour light/dark cycle with food and water available ad libitum. All experiments were performed in accordance with the U.K. Animals (Scientific Procedures) Act (1986).
The animals were housed in groups of 4 in an air-conditioned room on a 12-hour light/dark cycle. Food and water were available ad libitum. They were allowed to acclimatise to the environment for experiments for three days by leaving them on a raised metal mesh for at least 40 min. The baseline paw withdrawal threshold (PWT) was examined using a series of graduated von Frey hairs (see below) for 3 consecutive days before surgery and re-assessed on the 6th to 8th day after surgery and on the 12th to 14th day after surgery before drug dosing.
Each rat was anaesthetized with 5% isoflurane mixed with oxygen (2 L per min) followed by an intramuscular (i.m.) injection of ketamine 90 mg/kg plus xylazine 10 mg/kg. The back was shaved and sterilized with povidone-iodine. The animal was placed in a prone position and a para-medial incision was made on the skin covering the L4-6 level. The L5 spinal nerve was carefully isolated and tightly ligated with 6/0 silk suture. The wound was then closed in layers after a complete haemostasis. A single dose of antibiotics (Amoxipen, 15 mg/rat, i.p.) was routinely given for prevention of infection after surgery. The animals were placed in a temperature-controlled recovery chamber until fully awake before being returned to their home cages.
LAT9993 LoopS (SEQ ID NO:28), SEQ11+LAT9993 Loop (SEQ ID NO:32; […]), SEQ25+LAT9993 Loop (SEQ ID NO:33; […]), LAT9993 SLoop A4 (SEQ ID NO:30), LAT9993 SLoop A7 (SEQ ID NO:31), LAT9993 SLoop A9 (SEQ ID NO:34; SCRSRPVEASC) and LAT9993 SLoop A10 (SEQ ID NO:35; SCRSRPVESAC), were solubilised in distilled water and made up as concentrated stocks and stored frozen until the day of experiment when they were diluted to the required test concentrations in artificial cerebrospinal fluid (aCSF), as described in Example 3, above.
Ten to fourteen days after surgery, animals were placed in individual Perspex boxes on a raised metal mesh for at least 40 minutes prior to PWT testing. Starting with the filament of lowest force (1 g), each filament was applied perpendicularly to the centre of the ventral surface of the paw until slightly bent for 6 seconds. If the animal withdrew or lifted its paw upon stimulation, a von Frey hair with force immediately lower than that tested was subsequently used. If no response was observed, then a hair with force immediately higher was tested. The lowest amount of force required to induce reliable responses (positive in 2 out of 3 trials) was recorded as the value of PWT. Only animals showing significant mechanical allodynia (PWT≤3.5 g) were selected for subsequent electrophysiological experiments (see FIG. 5).
Once validation of a neuropathic state had been confirmed, animals were terminally anesthetized using isoflurane (Norvartis Animal Health UK Ltd.), cervically dislocated and decapitated. A laminectomy was performed and the spinal cord, with spinal roots and DRG attached, removed and cut into 250-450 μm thick slices using a Leica VT1000S vibrating microtome (Leica Microsystems UK, Milton Keynes, United Kingdom). Slices were maintained in artificial cerebrospinal fluid (aCSF) at room temperature for 1 hr after slicing before recording. For recording, individual slices were held between two grids in a custom-built chamber continuously perfused with aCSF at a rate of 4-10 ml.min^−1, illuminated from below, and viewed under a dissection microscope. The aCSF was of the following composition (mM): NaCl, 127; KCl, 1.9; KH2PO4, 1.2; CaCl2, 2.4; MgCl2, 1.3; NaHCO3, 26; D-glucose, 10; equilibrated with 95% O2-5% CO2. […]

[1] = listed as SEQ 11 + LAT9993 Loop

## CRSRPVESSCSSKFSWDEYEQYKKE (listed as Homo sapiens) [SEQ25+LAT9993 Loop, peptide variant of formula (I)]
  dorsal root afferent-mediated EPSPs / synaptic inputs (words): suppressed dorsal root-evoked excitatory posts-synaptic potentials (EPSPs) in one neurone; also recorded: suppressed dorsal root afferent-mediated synaptic inputs; also recorded: partly suppressed
  Input Resistance, mean in presence of peptide: 339.6±97.6 MΩ
  Membrane Potential, mean in presence of peptide: −49.1±3.0 mV
  Normalised Input Resistance: 101.7
  Normalised Input Resistance ΔIR: −1.7
  effect on membrane potential and activity of dorsal horn neurons: induced inhibition of spontaneous activity and suppressed an after-depolarising potential; also recorded: slight depolarisation of the membrane potential
  Normalised Membrane Potential: 93.7
  Normalised Membrane Potential ΔVm: 6.3
  ΔIR, change in neuronal input resistance: 1.4±18.2 MΩ
  ΔVm, change in membrane potential: 3.4±0.9 mV
Listed as SEQ25 + LAT9993 Loop
  Input Resistance, mean in presence of peptide: 339.6 MΩ
  Membrane Potential, mean in presence of peptide: −49.1 mV
  ΔIR, change in neuronal input resistance: −1.4 MΩ
  ΔVm, change in membrane potential: −3.4 mV

## IDPSSEAPGHSCRSRPVESSC (listed as Homo sapiens) [SEQ11+LAT9993 Loop, peptide variant of formula (I)]
  dorsal root afferent-mediated EPSPs / synaptic inputs (words): little effect; also recorded: No obvious effect
  Input Resistance, mean in presence of peptide: 338.1±103.7 MΩ
  Membrane Potential, mean in presence of peptide: −52.3±9.8 mV
  Normalised Input Resistance: 85.6
  Normalised Input Resistance ΔIR: 14.4
  effect on membrane potential and activity of dorsal horn neurons: membrane hyperpolarisation and inhibition of activity in 2 neurons; also recorded: membrane depolarisation in the other neurone
  Normalised Membrane Potential: 101.4
  Normalised Membrane Potential ΔVm: −1.4
  reversal potential of induced response (VI plots intersect): around −65 mV
  ΔIR, change in neuronal input resistance: 109.5±140.2 MΩ
  ΔVm, change in membrane potential: 1.6±3.4 mV
[1]
  Input Resistance, mean in presence of peptide: 338.1 MΩ
  Membrane Potential, mean in presence of peptide: −52.3 mV
  ΔIR, change in neuronal input resistance: 109.5 MΩ
  ΔVm, change in membrane potential: 1.6 mV

## SCRSRPVEASC (listed as Homo sapiens) [LAT9993 SLoop A9, peptide variant of formula (I)]
  dorsal root afferent-mediated EPSPs / synaptic inputs (words): little effect
  dorsal root-evoked IPSPs: little effect
  Input Resistance, mean in presence of peptide: 243.1±54.4 MΩ and 243.1 MΩ
  Membrane Potential, mean in presence of peptide: −45.6±11.2 mV and −45.6 mV
  Normalised Input Resistance: 134.0
  Normalised Input Resistance ΔIR: −34.0
  Normalised Membrane Potential: 76.9
  Normalised Membrane Potential ΔVm: 23.1
  reversal potential of induced response (VI plots intersect): no obvious reversal potentials
Listed as LAT9993 Loop A9
  effect on membrane potential and activity of dorsal horn neurons: membrane depolarisation in all neurons
  dorsal root afferent-mediated EPSPs / synaptic inputs (words): no obvious effect; also recorded: little effect

## SCRSRPVESAC (listed as Homo sapiens) [LAT9993 SLoop A10, peptide variant of formula (I)]
  dorsal root afferent-mediated EPSPs / synaptic inputs (words): little effect
  Input Resistance, mean in presence of peptide: 452.3 MΩ
  Membrane Potential, mean in presence of peptide: −56.8±5.6 mV and −56.8 mV
  Normalised Input Resistance: 99.3
  Normalised Input Resistance ΔIR: 0.7
  Normalised Membrane Potential: 101.2
  Normalised Membrane Potential ΔVm: −1.2
  ΔIR, change in neuronal input resistance: −8.5 MΩ
  ΔVm, change in membrane potential: 0.7±1.2 mV and 0.7 mV
Listed as LAT9993 Loop A10
  Input Resistance, mean in presence of peptide: 452.3±197.1 MΩ
  effect on membrane potential and activity of dorsal horn neurons: membrane hyperpolarisation and inhibition of activity in 2 neurons; also recorded: membrane depolarisation in 1 neurone; also recorded: little effect on dorsal horn neurons
  ΔIR, change in neuronal input resistance: 8.5±26.5 MΩ

## SCRSRPAESSC (listed as Homo sapiens) [LAT9993 SLoop A7, peptide variant of formula (I)]
  dorsal root afferent-mediated EPSPs / synaptic inputs (words): suppressed dorsal root-evoked excitatory posts-synaptic potentials (EPSPs) in some neurons
  Input Resistance, mean in presence of peptide: 292.9±81.3 MΩ and 292.9 MΩ
  Membrane Potential, mean in presence of peptide: −46.2±4.3 mV and −46.2 mV
  Normalised Input Resistance: 93.3
  Normalised Input Resistance ΔIR: 6.7
  effect on membrane potential and activity of dorsal horn neurons: membrane hyperpolarisation and inhibition of activity in 1 neurone; also recorded: membrane depolarisation in 1 neurone; also recorded: no effect on membrane potential in the remaining neurone
  Normalised Membrane Potential: 95.3
  Normalised Membrane Potential ΔVm: 4.7
  reversal potential of induced response (VI plots intersect): around −90 mV
  ΔIR, change in neuronal input resistance: 22.8±59.8 MΩ and 22.8 MΩ
Listed as LAT9993 Loop A7
  effect on membrane potential and activity of dorsal horn neurons: membrane depolarisation
  dorsal root afferent-mediated EPSPs / synaptic inputs (words): suppressed dorsal root afferent-mediated excitatory synaptic inputs; also recorded: partly suppressed

## SCRARPVESSC (listed as Homo sapiens) [LAT9993 SLoop A4, peptide variant of formula (I)]
  dorsal root afferent-mediated EPSPs / synaptic inputs (words): suppressed
  Input Resistance, mean in presence of peptide: 294.6±40.7 MΩ
  Membrane Potential, mean in presence of peptide: −53.3±5.1 mV
  Normalised Input Resistance: 78.3
  Normalised Input Resistance ΔIR: 21.7
  effect on membrane potential and activity of dorsal horn neurons: membrane hyperpolarisation and inhibition of activity in 1 neurone; also recorded: membrane depolarisation in 3 neurons
  Normalised Membrane Potential: 107.7
  Normalised Membrane Potential ΔVm: −7.7
  ΔIR, change in neuronal input resistance: 103.1±55.5 MΩ
  ΔVm, change in membrane potential: 4.2±3.1 mV
Listed as LAT9993 Sloop A4
  Input Resistance, mean in presence of peptide: 294.6 MΩ
  Membrane Potential, mean in presence of peptide: −53.3 mV
  ΔIR, change in neuronal input resistance: 103.1 MΩ
  ΔVm, change in membrane potential: 4.2 mV
Listed as LAT9993 Loop A4
  effect on membrane potential and activity of dorsal horn neurons: membrane hyperpolarisation and suppression of activity
  dorsal root afferent-mediated EPSPs / synaptic inputs (words): suppressed dorsal root-evoked excitatory synaptic transmission; also recorded: partly suppressed
